Source: patent US20150124259A1, “Method For Biodynamic Spectroscope Imaging” (Purdue Research Foundation, priority 2013, published 2015)

Legend:
Format in all cases: cell-based
tumor spheroids (UMR106) = assay: Biodynamic spectroscopic imaging (BSI) of mitosis events in tumor spheroids, single-band thresholding (Taxol treatment)
Text: The mitosis phase has its own fingerprint because mitosis is one of the most dramatic events in a cell's life. However compared to the dynamic speckle from an entire tumor spheroid, the signal of the mitosis of a single cell is very weak. The statistical TDS technique is not able to show the mitosis events of single cells. On the other hand, BSI may be applied to generate a voxel based microspectrograms. In the current TDS system, the transverse and longitudinal resolution are 9 μm and 18 μm, and the typical size of UMR106 cell in tumor spheroid is about 10 um. Therefore, on the reconstructed image, each pixel contains about 4 cells. However the spectrum of a single pixel is too noisy to perform analysis, so 2×2 pixels can be preferably used as the balance point to calculate the spectra of the voxels. Thus, according to one aspect of the BSI method disclosed herein, the 3D image is reconstructed as voxels, rather than pixels, in which a voxel includes 2×2 pixels. The microspectrograms are then generated for each voxel, rather than pixel, which substantially eliminates the effect of noise in the image.
Therefore, for a single voxel, the normalized spectra from five datasets (20 mins) can be averaged together, with no risk of “missing” a biological event of the cell. By combining these normalized spectra together, the micro (voxel) spectrograms are generated. The baseline is the averaged spectrum over the entire tissue when it is only surrounded by growth medium. During the entire experimental period, each voxel corresponds to one spectrogram. A frequency vs. time fluctuation spectral response image of the tumor spheroid is constructed.
The frequency range is picked at a mid-high frequency band (0.52 Hz to 1 Hz, marked as a box in FIG. 7) and enhancement is picked as the finger print of the mitosis. The enhancement in this frequency range indicates both cell membrane undulation and cell organelle motion during mitosis. […] The prior approach discussed above referred to single-band thresholding that used the third case baseline described above as essentially a pixel-based TDS. This pixel-based TDS approach fails to isolate mitosis from other biological processes and to isolate mitosis from noise. Therefore, single-band thresholding only correctly acquires mitosis information when using the first or second case baselines described above.
Paclitaxel is a mitotic inhibitor used as an anti-cancer drug. It can stabilize microtubules so that cell division during mitosis can be interrupted. Experiments were performed using 2 concentrations of Paclitaxel: 1 μg/ml and 10 μg/ml. The tumor spheroids in these experiments were 430 μm diameter (1 μg/ml) and 410 μm diameter (10 μg/ml). The baselines were taken as described above. After 40 minutes, the original growth medium was replaced by medium with Paclitaxel. The data was collected for six hours, and the resulting macrospectrograms of the experiments are shown in FIG. 9b for 1 μg/ml and FIG. 9c for 10 μg/ml.
The thresholding used in this example is based on the single-band method using the first case baseline described above that averages the baseline over all pixels for all times. […] Each light speckle in each image represents a mitosis event. […] The mitosis events depicted in the BSI images of FIG. 10 are quantified in the graph of FIG. 11. The y-axis of the graph is the density of the voxels which are in the mitosis phase expressed as a fraction of the mitotic voxels to the total number of voxels for the underlying image. […]

DLD-1 tumor spheroid = assay: BSI imaging of tumor heterogeneity of drug response in DLD-1 tumor spheroid
Text: In a previous co-pending application Ser. No. 13/760,827, entitled “System and Method for Determining Modified States of Health of Living Tissue”, filed on Feb. 6, 2013, and published as Pub. No. 2013/0144151 (the '151 application), the entire disclosure of which is incorporated herein by reference, a method is described that uses time-frequency masks to extract feature vectors. Multiple masks are used to create feature vectors that are then used to classify a drug response. In accordance with the present disclosure, the BSI techniques described herein can use the same or similar time-frequency masks to capture different mechanisms related to the drug action, and then perform the analysis on a per-pixel basis to generate “hyperspectral” maps of the tumor response to drugs. Because the signal-to-noise of single-pixel power spectra for biodynamic spectroscopic imaging (BSI) is not as large as for tissue dynamics spectroscopy (TDS) that averages over many pixels, it is necessary to modify the time-frequency mask from that described in the '151 application. The time-frequency spectral power density is given by S(ω,T). This power spectrum typically has a power-law decay at higher frequencies, with several orders of magnitude in vertical dynamic range. […]

[1] = tested on: ex vivo biopsy sample of canine multicentric B-cell lymphoma; assay: BSI of drug response of ex vivo biopsy sample; settings: two-color pixel map
Text: An additional example of BSI is shown in FIG. 18 for an ex vivo biopsy sample of canine multicentric B-cell lymphoma. […] This signature is coded in green in the BSI image. The other spectral signature had low-frequency enhancement and high-frequency suppression, which is coded as red in the BSI image. […] This ex vivo biopsy is responding to the anticancer drug doxorubicin.

## CC(=O)O[C@H]1C(=O)[C@@]2(C)[C@H]([C@H](OC(=O)c3ccccc3)[C@]3(O)C[C@H](OC(=O)[C@H](O)[C@@H](NC(=O)c4ccccc4)c4ccccc4)C(C)=C1C3(C)C)[C@]1(OC(C)=O)CO[C@@H]1C[C@@H]2O [Paclitaxel]
Tumor spheroids (UMR106); 1 μg/ml, 430 μm diameter spheroid, compared with negative controls
  mitotic events, fraction of mitotic voxels to total voxels over time (FIG. 11): fewer mitotic events and decayed faster
Tumor spheroids (UMR106); 1 μg/ml, six hours after applying
  mitosis remaining after drug application (FIG. 11): still slight mitosis
Tumor spheroids (UMR106); 410 μm diameter spheroid
  mitotic events, fraction of mitotic voxels to total voxels over time (FIG. 11): decayed the fastest
Tumor spheroids (UMR106); Taxol treated vs untreated, single-band threshold 0.52-1.0 Hz, nearly six hours
  mitosis activity inside the tumor spheroids (BSI images, FIG. 10): significantly reduced
Tumor spheroids (UMR106); two hours after applying the drug
  mitosis remaining after drug application (FIG. 11): almost no mitosis at all

## CNC(=O)c1cc(Oc2ccc(NC(=O)Nc3ccc(Cl)c(C(F)(F)F)c3)cc2)ccn1 [Sorafenib]
DLD-1 tumor spheroid; BSI image and classification map
  homogeneity of the response across the specimen (FIGS. 16c, 17): majority of the specimen is unaffected or only slightly affected
DLD-1 tumor spheroid; spheroid approximately 600 microns in diameter, periphery vs interior
  BSI spectral response to drug, spatial distribution (FIG. 16c): highest magnitude in the proliferating shell, with low (dark) response internal to the tumor

## COc1cccc2c1C(=O)c1c(O)c3c(c(O)c1C2=O)C[C@@](O)(C(=O)CO)C[C@@H]3O[C@H]1C[C@H](N)[C@H](O)[C@H](C)O1 [doxorubicin]
[1]
  BSI spectral responses of tissue to drug (FIG. 18): two very different spectral responses
